Target: T1, ERα (Homo sapiens, UniProt P03372)
T1 construct: MCF-7 (ATCC; Cat. No.: HTB-22), a Luminal A breast cancer cell; culture medium EMEM; host or cells: MCF-7
T1 sequence (P03372 1-595): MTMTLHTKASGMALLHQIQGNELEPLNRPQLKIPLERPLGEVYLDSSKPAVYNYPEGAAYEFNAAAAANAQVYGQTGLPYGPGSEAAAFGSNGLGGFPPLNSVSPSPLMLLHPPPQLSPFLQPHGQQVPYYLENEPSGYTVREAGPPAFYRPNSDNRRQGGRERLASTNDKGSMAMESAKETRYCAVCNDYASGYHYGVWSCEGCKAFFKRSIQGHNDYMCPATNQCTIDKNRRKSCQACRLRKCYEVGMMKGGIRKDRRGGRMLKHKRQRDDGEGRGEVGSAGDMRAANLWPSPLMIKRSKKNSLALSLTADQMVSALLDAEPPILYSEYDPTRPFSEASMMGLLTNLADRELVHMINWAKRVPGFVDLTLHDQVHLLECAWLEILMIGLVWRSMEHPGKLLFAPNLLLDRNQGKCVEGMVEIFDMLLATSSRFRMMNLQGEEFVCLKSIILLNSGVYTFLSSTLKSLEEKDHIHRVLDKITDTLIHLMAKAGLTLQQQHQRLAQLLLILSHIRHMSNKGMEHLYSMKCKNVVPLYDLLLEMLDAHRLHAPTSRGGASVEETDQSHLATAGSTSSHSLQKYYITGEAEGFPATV
Experiment: iELISA of ER degradation in MCF-7 cells (Effect Example 1)
Assay type: cell-based
Conditions: MCF-7 iELISA, processing time 4 hours, starting concentration 1 μM; for Dmax: MCF7; for DC50: read-out: DC50 (drug concentration corresponding to 50% protein degradation)
From the text: 1. Cell Line • Breast cancer cell line and its culture medium: • MCF-7 (ATCC; Cat. No.: HTB-22), a Luminal A breast cancer cell; culture medium EMEM.
2. Reagents • Culture medium EMEM (Gibco, 1964507) • Fetal bovine serum (Gibco, 10091148) • Penicillin-streptomycin double antibody (Gibco, S110JV) • DPBS (Gibco, 14190-144) • CellTiter-Glo® assay kit (Promega, G7573) • Trypsin (0.25%) (Gibco, 25200-056) • DMSO (Sigma, D2650)
3. Instruments • Biosafety cabinet (AIRTECH, BSC-1300A II) • Automated cell counter (Life Technologies, countess II) • Multifunctional microplate reader (Biotek, H1FM) • Orbital shaker (Hangzhou Allsheng Instruments Co., Ltd., OS-100) • XLFIT 5.3 (Inforstack Shanghai Co., Ltd.)
For this test method, the following experiments were performed in a biosafety cabinet, with the specific steps as follows: • (1) On the first day, cells were inoculated in a 96-well plate, the previous culture medium was poured off, 5 mL of DPBS was added to wash the cells, and then DPBS was pipetted and discarded. 1 mL of trypsin (0.25%) was then added. The plate was digested in a 37° C., 5% CO2 cell incubator for about 2 to 5 minutes and then taken out. A new corresponding culture medium was added, and pipetted up and down to resuspend the cells evenly. The cells were then counted using an automated cell counter. • (2) Each cell was inoculated in columns 1 to 12 of a 96-well plate (Corning, Cat. No.: 356690) at a density of 30,000 cells per well in 100 μL of culture medium. The plate was then placed in a 37° C., 5% CO2 incubator for 24 hours. • (3) On the second day, the compound of the present disclosure was 4-fold serially diluted to 10 dose points starting at 1 μM. 10 μL of the serially diluted compound was pipetted and added to 100 μL of cells in columns 1 to 10, and 10 μL of the corresponding culture medium containing 0.33 v % DMSO was added to both columns 11 and 12. The plate was incubated in a 37° C., 5% CO2 incubator for 4 hours (Note: column 11 was used as a MIN well without compound and primary antibody but with secondary antibody; column 12 was used as a MAX well without compound but with primary antibody and secondary antibody). • (4) The culture medium was then removed. The cells were washed once with 100 µL of DPBS, and fixed with 100 μL of 1 v % formaldehyde (CST; Cat. No.: 12606) fixative at room temperature for 30 minutes. • (5) The fixative was removed. The cells were washed once with 100 μL of DPBS, and permeabilized with 100 μL of 80 v % pre-cooled methanol (Jiazu-chemical; Cat. No.: 67-56-1) at 4° C. for 15 minutes. • (6) Methanol was removed, and the cells were washed once with 100 μL of DPBS. The plate was added with 100 μL of primary antibody (1:5000, a volume ratio of primary antibody to BSA; manufacturer of primary antibody: Invitrogen, Cat. No.: MA5-14501), and incubated at 4° C. overnight. • (7) Primary antibody was removed, and the cells were washed three times with […] of DPBS. The plate was added with 100 μL of secondary antibody (1:2500, a volume ratio of secondary antibody to BSA; manufacturer of secondary antibody: Univ, Cat. No.: abs20002), and incubated at room temperature for 1 hour. • (8) Secondary antibody was removed, and the cells were washed three times with […] of DPBS. The plate was added with 100 μL of tetramethylbenzidine (TMB) (CST; Cat. No.: 7004), and incubated at room temperature for 1 hour. • (9) The plate was added with 100 μL of stop buffer (CST; Cat. No.: 7002), and incubated at room temperature for 10 minutes. The OD450 signal value was detected with a multifunctional microplate reader, and finally, the degradation effect of the compound of the present disclosure on ER was plotted by XLFIT software, and the DC50 value of the compound of the present disclosure (drug concentration corresponding to 50% protein degradation) was calculated; Dmax=[(the highest level of ERα−the lowest level of ERα)/(the highest level of ERα)].

Dmax [%] | DC50 [nM] | Structure (SMILES)
60 | 7.6 | C[C@@H]1CN(CCOCC(=O)N2CCN(c3ccc4c(c3)C(=O)N(C3CCC(=O)NC3=O)C4=O)CC2)[C@@H](C)CN1CCOc1ccc(Oc2c(-c3ccc(S(C)(=O)=O)cc3)ccc3cc(O)ccc23)cc1 (stereo partly drawn) [Compound D15, 2-(2,6-dioxopiperidin-3-yl)-5-(4-(2-(2-((2S,5R)-4-(2-(4-((6-hydroxy-2-(4-(methylsulfonyl)phenyl)naphthalen-1-yl)oxy)phenoxy)ethyl)-2,5-dimethylpiperazin-1-yl)ethoxy)acetyl)piperazin-1-yl)isoindoline-1,3-dione]
47 |  | CS(=O)(=O)c1ccc(-c2ccc3cc(O)ccc3c2Oc2ccc(OCCOCCOCCOCCN3CCN(c4ccc5c(c4)C(=O)N(C4CCC(=O)NC4=O)C5=O)CC3)cc2)cc1 (centres unmarked) [Compound D19]
34 |  | CCN(CCOCCOCCN1CCN(c2ccc3c(c2)C(=O)N(C2CCC(=O)NC2=O)C3=O)CC1)CCOc1ccc(Oc2c(-c3ccc(S(C)(=O)=O)cc3)ccc3cc(O)ccc23)cc1 (centres unmarked) [Compound D28, 2-(2,6-dioxopiperidin-3-yl)-5-(4-(2-(2-(2-(ethyl(2-(4-((6-hydroxy-2-(4-(methylsulfonyl)phenyl)naphthalen-1-yl)oxy)phenoxy)ethyl)amino)ethoxy)ethoxy)ethyl)piperazin-1-yl)isoindoline-1,3-dione]
35 |  | CCN(CCCCCN(C)CC(=O)N1CCN(c2ccc3c(c2)C(=O)N(C2CCC(=O)NC2=O)C3=O)CC1)CCOc1ccc(Oc2c(-c3ccc(S(C)(=O)=O)cc3)ccc3cc(O)ccc23)cc1 (centres unmarked) [Compound D31, 2-(2,6-dioxopiperidin-3-yl)-5-(4-(N-(5-(ethyl(2-(4-((6-hydroxy-2-(4-(methylsulfonyl))phenyl)naphthalen-1-yl)oxy)phenoxy)ethyl)aminopentyl)-N-methylglycyl)piperazin-1-yl)isoindoline-1,3-dione]
48 |  | C[C@@H]1CN(CCOc2ccc(Oc3c(-c4ccc(S(C)(=O)=O)cc4)ccc4cc(O)ccc34)cc2)[C@@H](C)CN1CCOCC(=O)N1CCN(c2ccc3c(c2)CN(C2CCC(=O)NC2=O)C3=O)CC1 (stereo partly drawn) [Compound D9, 3-(5-(4-(2-(2-((2R,5S)-4-(2-(4-((6-hydroxy-2-(4-(methylsulfonyl)phenyl)naphthalen-1-yl)oxy)phenoxy)ethyl)-2,5-dimethylpiperazin-1-yl)ethoxy)acetyl)piperazin-1-yl)-1-oxoisoindolin-2-yl)piperidine-2,6-dione]

More lines, now with the values behind:

Structure (SMILES) | Dmax [%] | DC50 [nM]
CS(=O)(=O)c1ccc(-c2ccc3cc(O)ccc3c2Oc2ccc(OCCOCCOCCN3CCN(c4ccc5c(c4)C(=O)N(C4CCC(=O)NC4=O)C5)CC3)cc2)cc1 (centres unmarked) [Compound D22, 3-(6-(4-(2-(2-(2-(4-((6-hydroxy-2-(4-(methylsulfonyl)phenyl)naphthalen-1-yl)oxy)phenoxy)ethoxy)ethoxy)ethyl)piperazin-1-yl)-1-oxoisoindolin-2-yl)piperidine-2,6-dione] | 54 | 4.9
CS(=O)(=O)c1ccc(-c2ccc3cc(O)ccc3c2Oc2ccc(OCCOCCOCCOCCN3CCN(c4ccc5c(c4)C(=O)N(C4CCC(=O)NC4=O)C5)CC3)cc2)cc1 (centres unmarked) [Compound D21] | 69 | 7.5
CS(=O)(=O)c1ccc(-c2ccc3cc(O)ccc3c2Oc2ccc(OCCCCN3CCN(c4ccc5c(c4)CN(C4CCC(=O)NC4=O)C5=O)CC3)cc2)cc1 (centres unmarked) [Compound D59, 3-(5-(4-(4-(4-((6-hydroxy-2-(4-(methylsulfonyl)phenyl)naphthalen-1-yl)oxy)phenoxy)butyl)piperazin-1-yl)-1-oxoisoindolin-2-yl)piperidine-2,6-dione] | 67 | 0.5
CS(=O)(=O)c1ccc(-c2ccc3cc(O)ccc3c2Oc2ccc(OCCOCCOCCN3CCN(c4ccc5c(c4)CN(C4CCC(=O)NC4=O)C5=O)CC3)cc2)cc1 (centres unmarked) [Compound D30] | 35 | 
CS(=O)(=O)c1ccc(-c2ccc3cc(O)ccc3c2Oc2ccc(N3CCN(CCCCCOCC(=O)N4CCN(c5ccc6c(c5)CN(C5CCC(=O)NC5=O)C6=O)CC4)CC3)cc2)cc1 (centres unmarked) [Compound D11, 3-(5-(4-(2-((5-(4-(4-((6-hydroxy-2-(4-(methylsulfonyl)phenyl)naphthalen-1-yl)oxy)phenyl)piperazin-1-yl)pentyl)oxy)acetyl)piperazin-1-yl)-1-oxoisoindolin-2-yl)piperidine-2,6-dione] | 40 | 
CS(=O)(=O)c1ccc(-c2ccc3cc(O)ccc3c2Oc2ccc(OCCOCCOCCOCCOc3ccc4c(c3)C(=O)N(C3CCC(=O)NC3=O)C4)cc2)cc1 (centres unmarked) [Compound D35, 3-(6-(2-(2-(2-(2-(4-((6-hydroxy-2-(4-(methylsulfonyl)phenyl)naphthalen-1-yl)oxy)phenoxy)ethoxy)ethoxy)ethoxy)ethoxy)-1-oxoisoindolin-2-yl)piperidine-2,6-dione] | 32 | 
CCN(CCOc1ccc(Oc2c(-c3ccc(S(C)(=O)=O)cc3)ccc3cc(O)ccc23)cc1)C(=O)c1ccc(CCC2CCN(C3CCN(c4ccc5c(c4)C(=O)N(C4CCC(=O)NC4=O)C5=O)CC3)CC2)cc1 (centres unmarked) [Compound D34, 4-(2-(1′-(2-(2,6-dioxopiperidin-3-yl)-1,3-dioxoisoindolin-5-yl)-[1,4′-bipiperidin]-4-yl)ethyl)-N-ethyl-N-(2-(4-((6-hydroxy-2-(4-(methylsulfonyl)phenyl)naphthalen-1-yl)oxy)phenoxy)ethyl)benzamide] | 45 | 
CCN(CCOc1ccc(Oc2c(-c3ccc(S(C)(=O)=O)cc3)ccc3cc(O)ccc23)cc1)CC(=O)N1CCN(c2ccc3c(c2)C(=O)N(C2CCC(=O)NC2=O)C3=O)CC1 (centres unmarked) [Compound D8, 2-(2,6-dioxopiperidin-3-yl)-5-(4-(N-ethyl-N-(2-(4-((6-hydroxy-2-(4-(methylsulfonyl)phenyl)naphthalen-1-yl)oxy)phenoxy)ethyl)glycyl)piperazin-1-yl)isoindoline-1,3-dione] | 43 | 
